US11578087B2, “Oxaborole esters and uses thereof” (priority 2016, dated 2023)

How the values were obtained:
[1] = test system: IL3000 T. congolense (drug sensitive) strain; assay: In vitro Alamar Blue 72 h drug sensitivity assay for T. congolense; type: cell-based, Trypanosoma congolense; settings: Trypanosoma congolense, 72 h, bloodstream form, 69 h + 3 h Resazurin, 34° C., read-out: IC50: I Org. Growth T. congolense 3 d
How it was run: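 Bloodstream-form trypanosomes in HMI medium with 20% bovine serum were exposed to compounds for 69 h at 34° C, 5% CO2, then resazurin for another 3 h. Fluorescence read at ex 536/em 588 nm; IC50 from 11-point sigmoidal dose-response curves, at least three independent runs.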

[2] = test system: T. cruzi amastigote (Td Tomato-modified) in Vero cells; assay: In vitro IC50 measurement of T. cruzi amastigote killing using Td Tomato-modified T. cruzi; type: cell-based; settings: Trypanosoma cruzi, 72 h, fluorescence, read-out: IC50: I Org. amastigote Growth T. cruzi 3 d
How it was run: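 Vero cells infected with Td Tomato-expressing T. cruzi, treated with compound at 5 uM to 5 nM final, incubated 72 h at 37 °C. Fluorescence (Ex 544/Em 612 nm) read at Day 0 and Day 3, Day 0 subtracted; IC50 and IC90 by nonlinear regression.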

Work on `Cc1c(C(=O)N[C@H](C(=O)OC(C(F)(F)F)C(F)(F)F)C(C)C)ccc2c1B(O)OC2` [Example 6-156, 1,1,1,3,3,3-Hexafluoropropan-2-yl (1-hydroxy-7-methyl-1,3-dihydrobenzo[c][1,2]oxaborole-6-carbonyl)-L-valinate] yielded an IC50 [1] of 0.01 to 5 µM and an IC50 [2] of at least 1 µM.
`Cc1c(C(=O)N[C@H](C(=O)OCC2COCCOC2)C(C)C)ccc2c1B(O)OC2` [Example 6-157, (1,4-Dioxepan-6-yl)methyl (1-hydroxy-7-methyl-1,3-dihydrobenzo[c][1,2]oxaborole-6-carbonyl)-L-valinate] showed an IC50 [1] of under 0.0005 µM and an IC50 [2] of 0.021 to 0.999 µM.
Work on `Cc1c(C(=O)N[C@H](C(=O)OCc2ccnc(C(F)(F)F)n2)C(C)C)ccc2c1B(O)OC2` [Example 6-160, (2-(Trifluoromethyl)pyrimidin-4-yl)methyl (1-hydroxy-7-methyl-1,3-dihydrobenzo[c][1,2]oxaborole-6-carbonyl)-L-valinate] yielded an IC50 [1] of under 0.0005 µM and an IC50 [2] of 0.021 to 0.999 µM.
With `Cc1c(C(=O)N[C@H](C(=O)OCc2cc(C(F)(F)F)ncn2)C(C)C)ccc2c1B(O)OC2` [Example 6-161, (6-(trifluoromethyl)pyrimidin-4-yl)methyl (1-hydroxy-7-methyl-1,3-dihydrobenzo[c][1,2]oxaborole-6-carbonyl)-L-valinate] the IC50 [1] was under 0.0005 µM and the IC50 [2] was at most 0.02 µM.
For `C[C@H](NC(=O)c1ccc2c(c1)B(O)OC2)C(=O)O` [Example 6-164, (1-Hydroxy-1,3-dihydrobenzo[c][1,2]oxaborole-6-carbonyl)-L-alanine], the IC50 [1] was 0.01 to 5 µM and the IC50 [2] was at least 1 µM.
With `Cc1c(C(=O)N[C@H](C(=O)OCc2ccc(F)cc2)C(C)C)ccc2c1B(O)OC2` [Example 6-165, 4-Fluorobenzyl (1-hydroxy-7-methyl-1,3-dihydrobenzo[c][1,2]oxaborole-6-carbonyl)-L-valinate] the IC50 [1] was under 0.0005 µM and the IC50 [2] was at most 0.02 µM.
With `Cc1c(C(=O)N[C@H](C(=O)OCc2ccc(F)c(F)c2)C(C)C)ccc2c1B(O)OC2` [Example 6-166, 3,4-Difluorobenzyl (1-hydroxy-7-methyl-1,3-dihydrobenzo[c][1,2]oxaborole-6-carbonyl)-L-valinate] the IC50 [1] was under 0.0005 µM and the IC50 [2] was at most 0.02 µM.
Compound `Cc1c(C(=O)N[C@H](C(=O)OCc2ccc(Cl)c(OCCN3CCOCC3)c2)C(C)C)ccc2c1B(O)OC2` [Example 6-167, 4-Chloro-3-(2-morpholinoethoxy)benzyl (1-hydroxy-7-methyl-1,3-dihydrobenzo[c][1,2]oxaborole-6-carbonyl)-L-valinate] has an IC50 [1] of under 0.0005 µM and an IC50 [2] of at most 0.02 µM.
Compound `Cc1c(C(=O)N[C@H](C(=O)OCc2ccc(C(F)(F)F)nc2)C(C)C)ccc2c1B(O)OC2` [Example 6-168, (6-(Trifluoromethyl)pyridin-3-yl)methyl (1-hydroxy-7-methyl-1,3-dihydrobenzo[c][1,2]oxaborole-6-carbonyl)-L-valinate] has an IC50 [1] of under 0.0005 µM and an IC50 [2] of at most 0.02 µM.
Compound `Cc1c(C(=O)N[C@H](C(=O)OCc2ccc(F)cc2)C(C)(C)O)ccc2c1B(O)OC2` [Example 6-169, 4-Fluorobenzyl (S)-3-hydroxy-2-(1-hydroxy-7-methyl-1,3-dihydrobenzo[c][1,2]oxaborole-6-carboxamido)-3-methylbutanoate] has an IC50 [1] of under 0.0005 µM and an IC50 [2] of at most 0.02 µM.
`Cc1c(C(=O)N[C@H](C(=O)OCCN2CCOCC2)C(C)C)ccc2c1B(O)OC2` [Example 6-170, 2-Morpholinoethyl (1-hydroxy-7-methyl-1,3-dihydrobenzo[c][1,2]oxaborole-6-carbonyl)-L-valinate] showed an IC50 [1] of 0.00051 to 0.00999 µM and an IC50 [2] of 0.021 to 0.999 µM.
With `Cc1c(C(=O)N[C@H](C(=O)OCc2ccc(C(F)(F)F)cn2)C(C)C)ccc2c1B(O)OC2` [Example 6-171, (5-(trifluoromethyl)pyridin-2-yl)methyl (1-hydroxy-7-methyl-1,3-dihydrobenzo[c][1,2]oxaborole-6-carbonyl)-L-valinate] the IC50 [1] was under 0.0005 µM and the IC50 [2] was at most 0.02 µM.
Compound `Cc1c(C(=O)N[C@H](C(=O)OCC2CCOCC2)C(C)C)ccc2c1B(O)OC2` [Example 6-172, (tetrahydro-2H-pyran-4-yl)methyl (1-hydroxy-7-methyl-1,3-dihydrobenzo[c][1,2]oxaborole-6-carbonyl)-L-valinate] has an IC50 [1] of under 0.0005 µM and an IC50 [2] of at most 0.02 µM.
`Cc1c(C(=O)N[C@H](C(=O)OCCc2ccccn2)C(C)C)ccc2c1B(O)OC2` [Example 6-173, 2-(Pyridin-2-yl)ethyl (1-hydroxy-7-methyl-1,3-dihydrobenzo[c][1,2]oxaborole-6-carbonyl)-L-valinate] showed an IC50 [1] of under 0.0005 µM and an IC50 [2] of at most 0.02 µM.
With `Cc1c(C(=O)N[C@H](C(=O)OCc2cnccn2)C(C)C)ccc2c1B(O)OC2` [Example 6-186, Pyrazin-2-ylmethyl (1-hydroxy-7-methyl-1,3-dihydrobenzo[c][1,2]oxaborole-6-carbonyl)-L-valinate] the IC50 [1] was 0.00051 to 0.00999 µM and the IC50 [2] was 0.021 to 0.999 µM.
For `Cc1c(C(=O)N[C@H](C(=O)OC(C)(C)C)C(C)C)ccc2c1B(O)OC2` [Example 6-188, Tert-butyl (1-hydroxy-7-methyl-1,3-dihydrobenzo[c][1,2]oxaborole-6-carbonyl)-L-valinate], the IC50 [1] was 0.01 to 5 µM and the IC50 [2] was at least 1 µM.
With `Cc1c(C(=O)N[C@H](C(=O)OCc2cccc(C#N)n2)C(C)C)ccc2c1B(O)OC2` [Example 6-189, (6-cyanopyridin-2-yl)methyl (1-hydroxy-7-methyl-1,3-dihydrobenzo [c][1,2]oxaborole-6-carbonyl)-L-valinate] the IC50 [1] was under 0.0005 µM and the IC50 [2] was at most 0.02 µM.
Compound `Cc1c(C(=O)N[C@H](C(=O)OCc2ccncc2)C(C)C)ccc2c1B(O)OC2` [Example 6-190, Pyridin-4-ylmethyl (1-hydroxy-7-methyl-1,3-dihydrobenzo[c][1,2]oxaborole-6-carbonyl)-L-valinate] has an IC50 [1] of 0.00051 to 0.00999 µM and an IC50 [2] of 0.021 to 0.999 µM.
In the case of `CCOc1c(C(=O)N[C@H](C(=O)OCc2ccccc2)C(C)C)ccc2c1B(O)OC2` [Example 6-192, Benzyl (7-ethoxy-1-hydroxy-1,3-dihydrobenzo[c][1,2]oxaborole-6-carbonyl)-L-valinate], the IC50 [1] is reported as 0.00051 to 0.00999 µM and the IC50 [2] is reported as at least 1 µM.
In the case of `Cc1c(C(=O)N[C@H](C(=O)OCc2cncc(N3CCOCC3)n2)C(C)C)ccc2c1B(O)OC2` [Example 6-193, (6-morpholinopyrazin-2-yl)methyl (1-hydroxy-7-methyl-1,3-dihydrobenzo[c][1,2]oxaborole-6-carbonyl)-L-valinate], the IC50 [1] is reported as under 0.0005 µM and the IC50 [2] is reported as at most 0.02 µM.
In the case of `CCOc1c(C(=O)N[C@H](C(=O)OCc2ccc(F)cc2)C(C)C)ccc2c1B(O)OC2` [Example 6-196, 4-Fluorobenzyl (7-ethoxy-1-hydroxy-1,3-dihydrobenzo[c][1,2]oxaborole-6-carbonyl)-L-valinate], the IC50 [1] is reported as 0.00051 to 0.00999 µM and the IC50 [2] is reported as at least 1 µM.
For `Cc1c(C(=O)N[C@H](C(=O)OCc2cccc(N3CCOCC3)n2)C(C)C)ccc2c1B(O)OC2` [Example 6-197, (6-morpholinopyridin-2-yl)methyl (1-hydroxy-7-methyl-1,3-dihydrobenzo[c][1,2]oxaborole-6-carbonyl)-L-valinate], the IC50 [1] was under 0.0005 µM and the IC50 [2] was at most 0.02 µM.
Compound `Cc1c(C(=O)N[C@H](C(=O)OCc2ccc(C#N)cn2)C(C)C)ccc2c1B(O)OC2` [Example 6-200, (5-cyanopyridin-2-yl)methyl (1-hydroxy-7-methyl-1,3-dihydrobenzo[c][1,2]oxaborole-6-carbonyl)-L-valinate] has an IC50 [1] of under 0.0005 µM and an IC50 [2] of at most 0.02 µM.
With `Cc1c(C(=O)N[C@H](C(=O)OCc2cccc(N3CCN(C)CC3)n2)C(C)C)ccc2c1B(O)OC2` [Example 6-201, (6-(4-methylpiperazin-1-yl)pyridin-2-yl)methyl (1-hydroxy-7-methyl-1,3-dihydrobenzo[c][1,2]oxaborole-6-carbonyl)-L-valinate] the IC50 [1] was under 0.0005 µM and the IC50 [2] was 0.021 to 0.999 µM.
Work on `Cc1c(C(=O)N[C@H](C(=O)OCc2ncc(F)cn2)C(C)C)ccc2c1B(O)OC2` [Example 6-202, (5-fluoropyrimidin-2-yl)methyl (1-hydroxy-7-methyl-1,3-dihydrobenzo[c][1,2]oxaborole-6-carbonyl)-L-valinate] yielded an IC50 [1] of under 0.0005 µM and an IC50 [2] of at most 0.02 µM.
`Cc1c(C(=O)N[C@H](C(=O)OCc2nccc(C(F)(F)F)n2)C(C)C)ccc2c1B(O)OC2` [Example 6-203, (4-(trifluoromethyl)pyrimidin-2-yl)methyl (1-hydroxy-7-methyl-1,3-dihydrobenzo[c][1,2]oxaborole-6-carbonyl)-L-valinate] gave an IC50 [1] of under 0.0005 µM and an IC50 [2] of at most 0.02 µM.
`Cc1c(C(=O)N[C@H](C(=O)OCc2cncc(N3CCN(C)CC3)n2)C(C)C)ccc2c1B(O)OC2` [Example 6-204, (6-(4-methylpiperazin-1-yl)pyrazin-2-yl)methyl (1-hydroxy-7-methyl-1,3-dihydrobenzo[c][1,2]oxaborole-6-carbonyl)-L-valinate] was tested, and the IC50 [1] was under 0.0005 µM and the IC50 [2] was at most 0.02 µM.
In the case of `Cc1c(C(=O)N[C@H](C(=O)OCCN2CC(C)OC(C)C2)C(C)C)ccc2c1B(O)OC2` (stereo partly drawn) [Example 6-206, 2-(2,6-dimethylmorpholino)ethyl (1-hydroxy-7-methyl-1,3-dihydrobenzo[c][1,2]oxaborole-6-carbonyl)-L-valinate], the IC50 [1] is reported as under 0.0005 µM and the IC50 [2] is reported as 0.021 to 0.999 µM.
`Cc1c(C(=O)N[C@H](C(=O)OCC(C)N2CCOCC2)C(C)C)ccc2c1B(O)OC2` (stereo partly drawn) [Example 6-207, 2-morpholinopropyl (1-hydroxy-7-methyl-1,3-dihydrobenzo[c][1,2]oxaborole-6-carbonyl)-L-valinate] showed an IC50 [1] of 0.00051 to 0.00999 µM and an IC50 [2] of 0.021 to 0.999 µM.
Compound `Cc1c(C(=O)N[C@H](C(=O)OCCCN2CCOCC2)C(C)C)ccc2c1B(O)OC2` [Example 6-208, 3-morpholinopropyl (1-hydroxy-7-methyl-1,3-dihydrobenzo[c][1,2]oxaborole-6-carbonyl)-L-valinate] has an IC50 [1] of 0.00051 to 0.00999 µM and an IC50 [2] of 0.021 to 0.999 µM.
